According to ChEMBL document CHEMBL1156218, “The development and validation of a novel virtual screening cascade protocol to identify potential serotonin 5-HT(7)R antagonists” (Bioorg Med Chem Lett, 2010):

Experiments:
[1] = biological target: T1, 5-hydroxytryptamine receptor 1A (Homo sapiens, UniProt P08908); assay: Binding affinity at 5HT1A receptor
T1 sequence (P08908 whole entry): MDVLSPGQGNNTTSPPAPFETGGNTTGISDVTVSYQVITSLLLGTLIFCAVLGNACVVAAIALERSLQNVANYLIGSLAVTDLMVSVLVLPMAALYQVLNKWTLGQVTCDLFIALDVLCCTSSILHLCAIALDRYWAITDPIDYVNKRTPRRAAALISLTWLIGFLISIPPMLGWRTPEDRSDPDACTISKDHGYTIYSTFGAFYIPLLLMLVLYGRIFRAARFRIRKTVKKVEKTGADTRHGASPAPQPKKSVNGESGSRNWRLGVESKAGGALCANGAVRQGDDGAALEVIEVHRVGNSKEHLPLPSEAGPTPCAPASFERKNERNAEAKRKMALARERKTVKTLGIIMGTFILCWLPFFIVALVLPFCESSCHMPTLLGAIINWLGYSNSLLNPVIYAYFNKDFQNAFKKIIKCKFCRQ

[2] = biological target: T2, 5-hydroxytryptamine receptor 7 (Homo sapiens, UniProt P34969); assay: Displacement of [3H]5CT from 5HT7 receptor
[3] = biological target: T2, 5-hydroxytryptamine receptor 7; assay: Displacement of [3H]5CT from 5HT7 receptor at 0.1 uM
[4] = biological target: T2, 5-hydroxytryptamine receptor 7; assay: Displacement of [3H]5CT from 5HT7 receptor at 1 uM

T2 sequence (P34969 whole entry): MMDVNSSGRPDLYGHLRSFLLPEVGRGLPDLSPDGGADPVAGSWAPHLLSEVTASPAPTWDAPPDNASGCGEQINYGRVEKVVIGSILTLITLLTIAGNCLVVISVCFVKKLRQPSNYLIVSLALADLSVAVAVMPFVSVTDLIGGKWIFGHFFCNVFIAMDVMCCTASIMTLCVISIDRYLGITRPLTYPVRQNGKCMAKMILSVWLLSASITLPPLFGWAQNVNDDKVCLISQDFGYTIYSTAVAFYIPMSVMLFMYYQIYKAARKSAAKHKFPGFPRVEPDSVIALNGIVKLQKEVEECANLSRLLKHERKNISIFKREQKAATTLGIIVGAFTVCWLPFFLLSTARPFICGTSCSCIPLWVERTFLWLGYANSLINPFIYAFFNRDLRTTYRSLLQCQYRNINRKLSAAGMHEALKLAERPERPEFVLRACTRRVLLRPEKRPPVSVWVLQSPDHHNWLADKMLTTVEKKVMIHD

Ki [1] [nM]	Ki ([2]; read-out: Ki) [nM]	Activity [3] [%]	Activity [4] [%]	SMILES	Ki ([2]; read-out: pKi (converted)) [nM]
8	197	29	75	OC(CNCC1COc2ccccc2O1)COc1ccccc1F (centres undefined)	–
–	–	–	–	O=C1Nc2cccc3c2[C@]1(CCCCN1CC=C(c2ccccc2)CC1)CCC3	2.14
36	265	23	67	OC(CNCC1COc2ccccc2O1)COCc1ccccc1Cl (centres undefined)	–
